Assay results reported in patent US20050148505A1, “Genes and agents to regulate follicular development, ovulation cycle and steriodogenesis” (priority 2003, published 2005).

Legend:
CTBP mRNA = CTBP mRNA expression in primary granulosa cell culture by semi-quantitative RT-PCR; format: cell-based, rat; conditions: 6 h; for CTBP mRNA level, inhibitor alone in the absence of FSH: CHX 10 μg/ml or α-amanitin 30 μg/ml, compared to control
Description: FIG. 3. CTBP mRNA expression in primary granulosa cell culture. Granulosa cells were isolated from the ovaries of 24 day old immature rat primed with 17β-estradiol. The cells were cultured in the presence of 30 ng/ml FSH for up to 48 h, and RNA was extracted and amplified for CTBP using quantitative RT-PCR. In addition, L-19 mRNA was probed as an internal control. The CTBP values were normalized with the corresponding values of L-19 and two independent experimental values were averaged.
FIG. 5. Effects of cycloheximide and α-amanitin treatment on the FSH/forskolin-induced expression of CTBP mRNA. Granulosa cells were isolated from 17β-estradiol primed 24-day old immature rat ovaries and cultured with FSH (30 ng/ml) or forskolin (10 μM, FSK) in the presence or absence of cycloheximide (10 μg/ml, CHX) or α-amanitin (30 μg/ml, AMA) for the 6 h. CHX, a translation inhibitor, and AMA, a transcription inhibitor, were pretreated to the cell cultures one hour before hormone treatment. Total RNA was isolated and analyzed for CTBP and L-19 mRNA by semi-quantitative RT-PCR assay using 23 cycles for CTBP and 20 cycles for L-19. L-19 was used as an internal control. Values shown are the range of two independent experiments along with the mean, indicated by bars.
For granulosa cell culture, immature rats were daily injected sub cutaneously with 1.5 mg of 17β-estradiol at 21, 22 and 23 days of age. […] After cells were washed three times in 4F, they were plated on serum-coated, 6-well plates at a density of ˜1×10^6 cells per […] and incubated in the humidified atmosphere of 5% CO2 at 37 C. After 16 h, FSH (30 ng/ml) or forskolin (10 μM) was added to the cultures. For the inhibition of protein synthesis or transcription, cycloheximide (10 μg/ml) or α-amanitin (30 μg/ml) was added, respectively, 1 h before hormone treatment.
RT-PCR was performed as previously described (Ko et al. 1999 Endocrinology 140:5185-519411). Total RNA (1-2 μg) was reverse-transcribed at 37° C. in 20 μl using random hexamer (500 ng) and MMLV reverse transcriptase (10 units) (New England BioLabs, Boston, Mass.). Complementary DNA (cDNA) in 2 μl was added for a total 25 μl reaction mixture containing the primers (200 ng each), 0.4 mM dNTP mixture, and Taq DNA polymerase (2.5 U) in 1×PCR buffer (10 mM Tris, pH 8.3, 50 mM KCl, 1.5 mM MgCl2, 0.01% gelatin). All PCR amplifications were carried out for 20, 25, 30 cycles on a MJ research Minicycler (MJ Research, MA). PCR products were separated by 2% agarose gel electrophoresis, stained with SYBR® Green I (Molecular Probes), and visualized on a phosphoimager. The primers were 5′-ctg act ggc gag aac tgg atg-3′SEQ ID NO. 1) and 5′-aca gta tgc agg ctt cgc tcc-3′ (SEQ ID NO. 2) for 160 bp CTBP, 5′-gct ttc cct ctg ttg acc cac-3′(SEQ ID NO. 3) and 5′-aga tgt tga ggg cag ctc gat-3′(SEQ ID NO. 4) for 255 bp inhibin α, 5′-ctg aag gtc aaa ggg aat gtg-3′ (SEQ ID NO. 5) and 5′-gga cag agt ctt gat gat ctc-3′ (SEQ ID NO. 6) for 194 bp L-19 as an internal control.

granulosa cells = assay: Estrogen production by granulosa cells, assayed in culture media; format: cell-based; conditions: for FSH-induced estrogen production: FSH pre-treated granulosa cells
Description: FIG. 7. Effects of T3 hormone on estrogen production. (A) Granulosa cells were treated with increasing concentrations of FSH and the culture media were assayed for estrogen production. (B) Granulosa cells that were pre-treated with FSH were treated with T3 for varying time periods, 0-4 days. The culture media were assayed for estrogen. (C) Granulosa cells were treated with none, thyroid hormone T3, FSH, or FSH and T3 combo for 3 or 5 days. The culture media were assayed for estrogen production. […] The culture media were assayed for estrogen production.

SMILES	CTBP mRNA level, inhibitor alone in the absence of FSH (CTBP mRNA)	CTBP mRNA expression, co-treatment with FSH (CTBP mRNA; α-amanitin 30 μg/ml plus FSH 30 ng/ml)	FSH-induced estrogen synthesis (granulosa cells; FSH and T3 combo for 3 or 5 days)	FSH-induced estrogen production (granulosa cells; T3 by day 4)	FSH-induced estrogen production (granulosa cells; T3 within 24 h)	hCG-dependent estrogen production (granulosa cells; hCG and T3 combo for 3 or 5 days)	FSH-dependent decrease in CTBP mRNA in the presence of inhibitor (CTBP mRNA; CHX 10 μg/ml added 1 h before FSH 30 ng/ml, compared with absence of CHX)	forskolin-induced reduction of CTBP mRNA level in the presence of inhibitor (CTBP mRNA; cycloheximide 10 μg/ml plus forskolin 10 μM)
CC[C@H](C)[C@@H]1NC(=O)CNC(=O)[C@@H]2Cc3c([nH]c4cc(O)ccc34)[S+]([O-])C[C@@H](NC(=O)CNC1=O)C(=O)N[C@@H](CC(N)=O)C(=O)N1C[C@H](O)C[C@H]1C(=O)N[C@@H]([C@@H](C)[C@@H](O)CO)C(=O)N2 (stereo in doubt) [α-amanitin]	did not significantly impact the expression level	completely abolished	–	–	–	–	–	–
N[C@@H](Cc1cc(I)c(Oc2ccc(O)c(I)c2)c(I)c1)C(=O)O [T3]	–	–	suppresses	completely blocked	suppressed	stimulates	–	–
C[C@@H]1C[C@@H]([C@H](O)CC2CC(=O)NC(=O)C2)C(=O)[C@@H](C)C1 [cycloheximide]	increased the CTBP mRNA level	–	–	–	–	–	significantly less	partially prevented
